Measurements as given in patent publication US4420482A, “1,4-Bis(acetylsalicyloyloxy)piperizine derivatives” (priority 1980, dated 1983).

Legend:
[1] = Therapeutic index (ratio between toxic dose and active dose); type: in vivo; conditions: 2600:158 for S.1528; 1000:100 for acetylsalicylic acid
[2] = Antipyretic activity, hyperpyrexia induced by intramuscular brewers' yeast; type: in vivo, Sprague Dawley rat; conditions: for antipyretic activity: equimolecular doses, S.1528 vs acetylsalicylic acid; for mean temperature decrease: half dosage
[3] = Comparative oral acute toxicity in the mouse; type: in vivo
Description: The new derivative of acetylsalicylic acid, ie S.1528, has been showing a quite mild toxicity associated with marked anti-inflammatory, antipyretic and analgesic activities as well as with an evident anti-histaminic activity. Moreover, unlike acetylsalicylic acid, the new compound appear to be entirely devoid of any gastric injuring effect.

[4] = Analgesic activity, pressure-induced pain on paw inflamed by brewers' yeast (test of Randall and Selitto); type: in vivo, Sprague Dawley rat; conditions: for Pain sensitivity threshold (g) of inflamed paw: mean of 1 and 2 hr, P < 0.01 vs controls; for analgesic activity: equimolecular doses, S.1528 vs acetylsalicylic acid
Experimental: The analgesic activity of S.1528 was assessed on the sensitivity threshold of pain induced by a pressure exerted on a rat's paw inflamed by application of brewers' yeast (90 Sprague Dawley male rats with a mean bodyweight of 150 g).

[5] = Paw carrageenin edema in the rat (anti-inflammatory activity); type: in vivo, Sprague Dawley rat; conditions: for anti-inflammatory activity: equimolecular doses, S.1528 vs acetylsalicylic acid
Experimental: The anti-inflammatory activity of S.1528 was assessed in the paw carrageenin edema (220 Sprague Dawley male rats with a mean bodyweight of 150 g). […] It should be noted that, in the overall context of the present patent application the term "equimolecular doses" of S.1528 indicates all those doses that contain acetylsalicylic residues in a quantity equivalent to that of acetylsalicylic acid used as reference drug.

[6] = Protective activity on lethal shock induced by inhaled histamine; type: in vivo, guinea-pig; conditions: for Protected animals: 20 guinea-pigs; for antihistaminic activity: inhaled histamine shock, guinea-pig
Description: Table 4 points out the protective activity exerted by S.1528 versus the lethal shock induced in the guinea-pig by an inhaled histamine.

[7] = Gastric ulcerogenic effect in the rat; type: in vivo, Sprague Dawley rat; conditions: for Incidence of gastric lesions (animals with lesions versus total treated): fasted 36 hours, killed 5 hours later

## CC(=O)Oc1ccccc1C(=O)O [Acetylsalicylic acid, acetylsalicylic acid, reference compound]
[1]
  therapeutic index (ratio between the toxic dose and the active dose): 10
[2]
  antipyretic activity: quite the same antipyretic activity
[2]; 75 mg/kg/os
  mean temperature decrease: 0.4 degrees centigrades
[3]; 250 mg/kg/os
  Mortality observed (7 days): 0
[3]; 500 mg/kg/os
  Mortality observed (7 days): 0
[3]; 750 mg/kg/os
  Mortality observed (7 days): 4/20
[3]; 1000 mg/kg/os
  Mortality observed (7 days): 10/20
[3]; 1250 mg/kg/os
  Mortality observed (7 days): 14/20
[3]; 1500 mg/kg/os
  Mortality observed (7 days): 20/20
[3]; 1750 mg/kg/os
  Mortality observed (7 days): 10/10
[3]; oral, 10080 min
  oral LD 50: 1000 mg/kg
[4]; 110 mg/kg/os
  Threshold percent increase vs. controls: 36.2%
  Pain sensitivity threshold (g) of inflamed paw: 122.6 ± 7.1 g
[4]; 221 mg/kg/os
  Threshold percent increase vs. controls: 71.2%
  Pain sensitivity threshold (g) of inflamed paw: 154.1 ± 5.7 g
[4]
  analgesic activity: quantitatively similar activity
[5]; 55 mg/kg/os, P ns
  Comparative edema decrease in the various groups of untreated control animals: -28
[5]; 110 mg/kg/os, P <0.01
  Comparative edema decrease in the various groups of untreated control animals: -44
[5]; 221 mg/kg/os, P <0.01
  Comparative edema decrease in the various groups of untreated control animals: -79
[5]
  anti-inflammatory activity: quantitatively superimposable anti-inflammatory activity
[6]; 110 mg/kg/os
  Time of resistance: 66 ± 6.3 min
  Protected animals: 0 animals
[6]; 221 mg/kg/os
  Time of resistance: 54 min
  Protected animals: 0 animals
[6]
  antihistaminic activity: entirely devoid of any antihistaminic activity

## CC(=O)Oc1ccccc1C(=O)OCCN1CCN(CCOC(=O)c2ccccc2OC(C)=O)CC1 [S.1528, 1,4-BIS-[2-(ACETYLSALICYLOYLOXY)ETHYL] PIPERAZINE]
[1]
  therapeutic index (ratio between the toxic dose and the active dose): 16.45
[2]
  antipyretic activity: quite the same antipyretic activity
[2]; 118.5 mg/kg/os
  mean temperature decrease: 0.4 degrees centigrades
[3]; 750 mg/kg/os
  Mortality observed (7 days): 0/10
[3]; 1000 mg/kg/os
  Mortality observed (7 days): 0/10
[3]; 1500 mg/kg/os
  Mortality observed (7 days): 0/20
[3]; 1750 mg/kg/os
  Mortality observed (7 days): 0/20
[3]; 2000 mg/kg/os
  Mortality observed (7 days): 4/20
[3]; 2250 mg/kg/os
  Mortality observed (7 days): 5/20
[3]; 2500 mg/kg/os
  Mortality observed (7 days): 8/20
[3]; 2750 mg/kg/os
  Mortality observed (7 days): 12/20
[3]; 3000 mg/kg/os
  Mortality observed (7 days): 16/20
[3]; in vivo, oral, read-out: oral LD 50
  LD50 at 168 h: ~2600 mg/kg
[7]; 158 mg/kg, os
  Mean number of gastric ulcerations (mm): 0 mm
  Incidence of gastric lesions (animals with lesions versus total treated): 0/20
[7]; 317 mg/kg, i.p.
  Mean number of gastric ulcerations (mm): 0 mm
  Incidence of gastric lesions (animals with lesions versus total treated): 0/20
[7]; 317 mg/kg, os
  Mean number of gastric ulcerations (mm): 0 mm
  Incidence of gastric lesions (animals with lesions versus total treated): 0/20
[7]; equimolecular doses, rat
  gastric injuring effect: no gastric injuring effect
[4]; 158 mg/kg/os
  Threshold percent increase vs. controls: 41.3%
  Pain sensitivity threshold (g) of inflamed paw: 127.2 ± 6.3 g
[4]; 317 mg/kg/os
  Threshold percent increase vs. controls: 69.1%
  Pain sensitivity threshold (g) of inflamed paw: 152.2 ± 8.4 g
[4]
  analgesic activity: quantitatively similar activity
[5]; 79 mg/kg/os, P ns
  Comparative edema decrease in the various groups of untreated control animals: -23
[5]; 158 mg/kg/os, P <0.01
  Comparative edema decrease in the various groups of untreated control animals: -52
[5]; 317 mg/kg/os, P <0.01
  Comparative edema decrease in the various groups of untreated control animals: -83
[5]
  anti-inflammatory activity: quantitatively superimposable anti-inflammatory activity
[6]; 158 mg/kg/os
  Percent Protection: 60%
  Time of resistance: 523 min
  Protected animals: 12 animals
[6]; 317 mg/kg/os
  Percent Protection: 100%
  Time of resistance: > 720 min
  Protected animals: 20 animals
[6]; Cavia porcellus, read-out: dose that protects 50 percent of the guinea-pigs from the onset of a shock due to histamine
  ED50: 158 mg/kg
[6]
  antihistaminic activity: evident antihistaminic activity
